According to article PMC8365601, “Terphenyl-Based Small-Molecule Inhibitors of Programmed Cell Death-1/Programmed Death-Ligand 1 Protein–Protein Interaction” (Journal of Medicinal Chemistry, 2021):
Like-named read-outs stand apart in the source and are kept apart here.

Legend:
human PD-L1 = biological target: T1, human PD-L1 (Homo sapiens, UniProt Q9NZQ7); test: 1H NMR titration with human PD-L1; format: binding; details: molar ratio 1:1
T1 construct: pET-21b plasmid carrying the PD-L1 gene (amino acids 18–134); made in house; host or cells: Escherichia coli BL21
Method: (§1) NMR spectra were recorded in PBS pH 7.4 containing 10% (v/v) of D2O added to the samples to provide the lock signal. Water suppression was carried out using the WATERGATE sequence. All the spectra were recorded at 300 K using a Bruker AVANCE 600 MHz spectrometer with the cryo-platform. The spectra were recorded at the ligand/protein ratio of 1:1, unless stated otherwise. The samples were prepared by adding small amounts of a 50 mM ligand stock solution in DMSO to the protein solution (0.20 mL) of PD-L1 fragment at a concentration of 0.2 mM. Spectra were visualized using TopSpin 4.0.2.

murine PD-L1 = murine PD-L1 (Mus musculus, UniProt Q9EP73); test: 1H NMR titration with murine PD-L1; format: binding; details: over-titration 1:10 protein:compound
Method: We additionally compared the spectra of the interaction of 8j with hPD-L1 (Figure 2B) and murine PD-L1 (mPD-L1) (Figure 2C). Only for human PD-L1, changes in NMR were observed upon addition of 8j to the protein.
as §1

[1] = Cytotoxicity assay toward Jurkat-ECs; format: cell-based; details: human, Jurkat-EC cells, SI csv
Method: The cytotoxicity of compounds was verified toward Jurkat-ECs since these cells provide the readout in the ICB assay and present a much higher degree of susceptibility to the compounds’ toxicity than CHO-K1 cells (not shown). Jurkat-ECs were seeded on 96-well transparent plates in the presence of increasing concentrations of the compounds with DMSO-treated cells as a control. The concentration of DMSO was kept constant (0.1%). After 48 h of incubation, a tetrazolium reagent, Biolog redox dye MIX MB (Biolog), was added according to the manufacturer’s protocol, and the culture plates were incubated for an additional 2 h (37 °C, 5% CO2). The absorbance was measured using a Spark microplate reader (Tecan) at 590 nm with 750 nm as a reference. The data are presented as Jurkat-EC survival relative to DMSO-treated control cells. Data points represent mean ± SD values from three independent experiments. Half-maximal effective concentrations (EC50 values) were calculated from the dose–response curve using OriginPro 2020 (OriginLab) software.

[2] = tested on: PBMCs cocultured with CHO/TCRAct/PD-L1 cells; test: Cytokine accumulation in culture media of the TCA assay (CBA Th1/Th2/Th17 kit); format: cell-based, human; details: TCA assay supernatants, four donors
Method: In addition to the expression of surface markers, the accumulation of immune-related cytokines in the culture media collected in the TCA assay was monitored with the cytometric bead array (CBA) human Th1/Th2/Th17 kit. […] Also, the levels of IL-6, IFN-γ, and IL-2 increased, but these increases were not statistically significant.
The concentration of the cytokines (IL-2, IL-4, IL-6, IL-10, IL-17A, IFN-γ, and TNFα) in supernatants was determined using the CBA Human Th1/Th2/Th17 kit (BD Biosciences), with data acquisition using the FACSCanto flow cytometer. The CBA beads were discriminated in FL-4 and FL-5 channels, while the concentration of specified cytokines was determined by the intensity of FL-2 fluorescence, using the respective standard reference curve and FCAP Array software (BD Biosciences). IL-4 was below the detection level and is not presented in the manuscript. Statistical significance was analyzed with one-way ANOVA using the Origin Pro 2020 software, followed by the Fisher’s posthoc test: *p < 0.05, **p < 0.01, […].

[3] = tested on: Jurkat-ECs alone or with CHO wt or CHO/TCRAct cells; test: ICB assay control where PD-L1 is absent; format: cell-based; details: 6 h; Figure S1
Method: The functional assay of the blockade of PD-1/PD-L1 interaction in vitro (PD-1/PD-L1 Blockade Bioassay, Promega) was performed according to the manufacturer’s protocol. CHO/TCRAct/PD-L1 cells or CHO/TCRAct or CHO-K1 cells were seeded on 96-well white plates at the density of 10,000 cells/well and the next day overlaid with Jurkat T cells (20,000 cells/well) in the presence of increasing concentrations of the compounds with DMSO only as a control (the concentration of DMSO was kept constant at 0.1%) or atezolizumab, as a positive control, anti-PD-L1 monoclonal antibody (Selleckchem). The 2.5-fold dilutions of atezolizumab were prepared in the assay buffer (RPMI 1640 + 1% FBS) on the day of the assay. Activation of the Jurkat T cells, reflected by luciferase activity, was monitored by luminescence measurements after 6 h of incubation (37 °C, 5% CO2), and 20 min of additional incubation with the Bio-Glo assay reagent (Promega) at room temperature. The luminescence was read on a Spark microplate reader (Tecan). The data are presented as fold induction of the luminescence signal relative to either untreated (for atezolizumab) or DMSO-treated (for compound) cells. Data points represent mean ± SD values from three to five independent experiments. Half-maximal effective concentrations (EC50 values) were calculated from the Hill curve fitting to the experimental data using Origin Pro 2020 software (OriginLab). […]
of the Immune Checkpoint Blockade (ICB) assay, where 8h, 8i, and 8j were used to restore the activation of effector Jurkat-ECs. Jurkat-ECs were either kept alone, or contacted with one of the following cell lines: wild type CHO K1 cells (CHO wt), CHO K1 cells expressing TCR Activator (CHO/TCRAct), or CHO K1 cells expressing TCR Activator and […]. The cells were incubated with the indicated concentrations of the compounds for 6 hours and luminescence was measured as an indicator of TCR-dependent activation of Jurkat-ECs. The graphs present fold induction of the luminescence signal relative to DMSO-treated cells. […]

PD-1/PD-L1 complex = PD-1/PD-L1 complex (Homo sapiens, UniProt Q9NZQ7); test: HTRF assay of PD-1/PD-L1 complex dissociation (CisBio); details: for remaining activity at 0.005 µM: 2 h;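 for all read-outs here: human PD-L1 at 5 nM with human PD-1 at 50 nM, TR-FRET signal read after 2 h at room temperature, background removed via negative control and scaled to positive control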
Chain of PD-1/PD-L1 complex (Q9NZQ7 19-238 limits assumed, one chain of several): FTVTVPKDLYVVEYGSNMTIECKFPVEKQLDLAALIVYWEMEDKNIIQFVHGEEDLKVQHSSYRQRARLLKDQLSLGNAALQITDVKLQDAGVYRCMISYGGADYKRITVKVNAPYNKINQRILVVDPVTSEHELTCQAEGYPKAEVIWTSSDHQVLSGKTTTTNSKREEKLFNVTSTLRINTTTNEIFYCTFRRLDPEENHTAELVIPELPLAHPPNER

Chain of murine PD-L1 (Q9EP73 18-134 limits assumed): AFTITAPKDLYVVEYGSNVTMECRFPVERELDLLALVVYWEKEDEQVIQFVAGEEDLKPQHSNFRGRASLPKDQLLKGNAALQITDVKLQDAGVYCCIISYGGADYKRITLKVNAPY
T1 sequence (Q9NZQ7 18-134): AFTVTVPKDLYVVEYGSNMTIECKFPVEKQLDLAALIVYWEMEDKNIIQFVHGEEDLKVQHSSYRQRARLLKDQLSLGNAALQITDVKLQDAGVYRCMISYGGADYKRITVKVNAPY

- change of hPD-L1 1H NMR spectrum on adding compound (human PD-L1): broadening of the hPD-L1 proton signals
- interaction with mPD-L1 by 1H NMR (murine PD-L1): no interaction was observed
- remaining activity at 0.005 µM (PD-1/PD-L1 complex; read-out: % of undissociated complex at 5 nM): 0%
- remaining activity at 0.005 µM (PD-1/PD-L1 complex; read-out: HTRF % of the undissociated complex at 5 nM): 0%
- IC50 (PD-1/PD-L1 complex; HTRF, Table 4, <1.00 = limit of quantification reached): < 0.001 µM
Structure (SMILES): COc1cc(-c2cccc(-c3ccc4c(c3)OCCO4)c2Cl)ccc1CNC(CO)(CO)CO [8j, 2-(((3′-(Benzo-1,4-dioxan-6-yl)-2′-chloro-3-methoxy-[1,1′-biphenyl]-4-yl)methyl)amino)-2-(hydroxymethyl)propane-1,3-diol]
- EC50 at 48 h [1]: 2.88 ± 0.39 µM
- accumulation of immune-related cytokines in culture media [2]: significant increases observed for IL-6, TNF-α, IFN-γ, IL-10, and IL-2
- activation of Jurkat-ECs where PD-L1 is absent [3]: requires the presence of PD-L1
